Data reported in patent publication US20070031509A1, “Breakthrough to cure psoriasis, psoriatic arthritis and treatment of other unrelated skin disorders, and external rectal and genital itching” (priority 2005, published 2007).

Legend:
eczema = assay: Earlier use of urea on eczema symptoms of type 2 diabetic patient; type: in vivo, human; conditions: high blood-sugar level, 16 years ago
psoriasis = assay: Comparison of performance of OTCs, zinc oxide and copper lactate on silvery patches L6-L8; type: in vivo, human
Description: As mentioned above, the presence and growth of L6, L7 and L8 lesions gave me an opportunity to compare the performance of my invention against the readily available OTCs. As mentioned earlier, coal tar, sea salts and several combinations of acids are used for treatment of psoriasis and eczema.
From June 1966 to March 1996, The U. S. Department of Interior (DOI) employed me as a research engineer. During the course of my employment with DOI, I had conducted research in more than 100 coal and salt mines. I have a sound knowledge of the properties of coal and salts. The following comments are based on my experimentations and my in-depth knowledge of the physical and chemical properties of these minerals. Furthermore, based on my own knowledge and past experience with the OTCs, I became suspicious of the validity of the claims made by the manufactures of OTCs containing coal tar and sea salts. Therefore, I designed a simple experimental procedure to compare effectiveness of readily available OTCs to treat psoriasis. Experimental procedure: Before each topical application, each of the three silvery patches was washed with warm soapy water and towel dried. Each OTC product was gently massaged onto all three silvery patches three times daily. Topical applications were made in accordance with the drug manufacturer's recommendations. At the end of four hours, physical observations were made. Silvery patches were again washed and dried and medication was applied again. Each product was tested for a period of four days. After completion of one test series and start of another, silvery patches were left alone for a period of four days to avoid carryover affects from one product to another.
Immune suppressing medications such as Elidel and Protopic and all other prescription drugs known to potentially contribute to cancer were excluded from this test series. Prescription phototherapy and systemics having different course of action and generally, they are not recommended for mild cases of psoriasis. Therefore, these medications were beyond the scope of this study.
Therefore, based on prior knowledge, for extension of this study, an ointment containing 40% zinc oxide was selected for testing.
8. Copper Lactate: Even though during this testing phase, no bleeding points were developed, it was still decided to explore the impact of copper lactate alone on psoriatic lesions. Copper lactate for this test series was produced by reacting yogurt in a copper container rather than a brass utensil.

[1] = after ten days of daily applications

Row | Structure (SMILES) | treatment of dry, flaky, cracked, and bleeding symptoms of eczema (eczema) | reduction in psoriatic lesions (psoriasis; after seven days of topical applications) | red thickened skin of the lesion whose silvery patch came off (psoriasis; [1]) | reduction in size of remaining two silvery lesions (psoriasis; [1]) | silvery patch of one of the psoriatic lesions (psoriasis; [1]) | swelling (psoriasis; after the first day of applications, no bleeding points) | pain and swelling (psoriasis; after three days of applications) | silvery scales (psoriasis; after three days of topical application) | silvery patches on the remaining two lesions (psoriasis; further topical applications)
1 | NC(N)=O [Urea] | totally ineffective |  |  |  |  |  |  |  | 
2 | CC(O)C(=O)[O-].CC(O)C(=O)[O-].[Cu+2] (stereo not drawn) [copper lactate] |  | 20% | completely disappeared | 20% | flaked off | significant reduction | completely gone | fell off | have not eliminated
